Patent US6828450B2, “Triptycene analogs” (Kansas State University Research Foundation, priority 2000, dated 2004)
“And” between values parts separate entries of the source, which are not always exact repeats. Identical values can stand only once. Like-named read-outs stand apart in the source and are kept apart here.

Tests used:
HL-60-S cells = assay: HL-60-S cell proliferation assay; assay type: cell-based, human
Text: The MDR HL-60-RV and HL-60-R8 cells were developed in Melvin S. Center's laboratory (Kansas State University) and similarly maintained in RPMI 1640 medium in the absence of drugs (Marsh W, et al, Cancer Res 46: 4053-4057, 1986; McGrath T et al, and Center M S: Biochem Biophys Res Commun 145: 1171-1176, 1987; Marsh W and Center M S: Cancer Res 47: 5080-5086, 1987; McGrath T, et al, Biochem Pharmacol 38: 3611-3619, 1989; Marquardt D, et al, Cancer Res 50: 1426-1430, 1990; Marquardt D and Center M S: J Natl Cancer Inst 83: 1089-1109, 1991; Krishnamachary N and Center M S; Cancer Res 53: 3658-3661, 1993). Every 4 weeks, these HL-60-RV and HL-60-R8 sublines were exposed to 41 nM DAU for 48 h to stabilize their MDR phenotype. This concentration of DAU, which is not cytotoxic to MDR HL-60 sublines, was removed from the culture medium at least 48 h before experimentation. […] RFs were determined by dividing the IC50 of the MDR cells by that of the sensitive WT parent cell line.

HL-60-R8 cells = assay: DNA synthesis in HL-60-R8 cells; assay type: cell-based, human; settings: read-out: IC50, inhibition of DNA synthesis in HL-60-R8 cells
L1210 cells [1] = assay: Mitotic index of L1210 cells; assay type: cell-based, murine; settings: 24 h; for decrease of the % of mitotic cells: DAU 0.256-1.6 μM, highest concentrations of TT2 tested
Experimental: FIG. 18. Effects of the novel TT analog TT2 and DAU on the mitotic index of L1210 cells in vitro. […] Cells (10^6/0.5 ml of RPMI 1640 medium) were incubated in triplicate for 24 h at 37° C. in the presence or absence (control) of 0.256, 0.64, 1.6 and 4 μM TT2, 0.256, 0.64 and 1.6 μM DAU, 0.2 μM VCR or 1 μM H10. After fixation with MeOH:acetic acid (3:1) and staining with 0.1% crystal violet, about 500 cells/slide were scored for mitotic figures and the mitotic index was expressed as the % of mitotic cells in drug-treated cultures divided by the % of mitotic cells in non-treated controls. The mean % of mitotic cells in control at 24 h was 1.86±0.43%.
L1210 cells (about 1×10^6/0.5 ml of FCS-containing RPMI 1640 medium) were incubated in triplicate for 24 h at 37° C. in the presence or absence of TTs or known antimitotic drugs, and collected by centrifugation at 200×g for 10 min to determine their mitotic index. For hypotonic treatment, cells were resuspended in 1 ml of 75 mM KCl for 20 min at 4° C. After fixation in 1 ml of MeOH:acetic acid (3:1), the final cell pellets were collected by centrifugation, resuspended in 75 μl of MeOH:acetic acid (3:1), dispensed onto glass slides, air dried, and stained by spreading 40 μl of 0.1% crystal violet under a coverslip. The % of cells in mitosis was determined microscopically by counting 500 cells/slides. The mitotic index was calculated as the % of mitotic cells in drug-treated cultures divided by the % of mitotic cells in non-treated controls.

L1210 cells [2] = assay: DNA cleavage (intact chromatin precipitation) in L1210 cells; assay type: cell-based, murine
Experimental: FIG. 19. Comparison of the concentration-dependent effects of novel TT analogs and known DNA-damaging anticancer drugs on DNA cleavage in L1210 cells in vitro. […] After lysing the cells in HLB containing 0.2% Triton X-100, the detergent-soluble DNA fragments present in the supernatants and the intact chromatin DNA remaining in the pellets were separated by centrifugation and their radioactivity estimated by LSC. Results are expressed as [cpm in supernatant/cpm in supernatant+pellet]×100 at 24 h. For untreated controls (5.3±0.6% DNA fragmentation; striped area), the supernatant is 741±79 cpm and the pellet is 13,293±1,446 cpm.
FIG. 20. Comparison of the abilities of novel TT analogs to induce DNA cleavage in L1210 cells in vitro. Cells containing prelabeled DNA were incubated at 37° C. for 24 h in the presence or absence (control) of 7 μM concentrations of the indicated compounds. The protocol of the experiment and the determination of the results were identical to those of FIG. 12.
FIG. 22. Irreversibility of the effects of novel TT analogs and known DNA-damaging anticancer drugs on DNA cleavage in L1210 cells in vitro. Cells containing prelabeled DNA were incubated at 37° C. for various periods of time in the presence or absence (control) of 10 μM TT1 or TT2 and 1.6 μM DAU or CPT. The protocol of the experiment and the determination of the results at 24 h were identical to those of FIG. 19, except that the drugs were either maintained in the medium for the whole 24-h period of incubation (open) or removed after the first 3 (striped) and 8 h (closed). After spinning and washing the appropriate samples to remove the drugs, cells were resuspended in 0.5 ml of fresh medium to complete the 24-h period of incubation in the absence of drugs. Vehicle-treated controls were similarly spun and washed at 3 and 8 h. Bars: means±SD (n=3).
Drug-induced DNA cleavage was determined by intact chromatin precipitation, using L1210, HL-60-S, HL-60-RV and HL-60-R8 cells which were prelabeled with 1 μCi of ^3H-thymidine for 2 h at 37° C., washed with 3×1 ml of ice-cold PBS, collected by centrifugation, and resuspended in fresh FCS-containing RPMI 1640 medium at a density of about 1×10^6 cells/0.5 ml for L1210 and 0.5×10^6 cells/0.5 ml for HL cells. Except when otherwise specified, such cells containing prelabeled DNA were then exposed for 24 h to TTs and drugs known to induce DNA fragmentation. After centrifugation at 200×g for 10 min to discard the drugs and wash the cells, the intact cell pellets were lysed for 30 min in 0.5 ml of HLB, centrifuged at 12,000×g for 30 min to collect the supernatants, and resuspended in 0.5 ml of HLB. After another similar centrifugation, the radioactivities in the pooled supernatants (detergent-soluble low molecular weight DNA fragments) and the pellet (intact chromatin DNA) were determined by LSC: % DNA fragmentation=[cpm in supernatant/cpm in supernatant+pellet]×100. Before being counted in 6 ml of Bio-Safe NA, the intact pelleted chromatin was incubated for 2 h at 60° C. in the presence of 0.6 ml of NCS tissue solubilizer (Amersham).

[3] = test system: Plasmodium falciparum 3D7; assay: Antimalarial activity, inhibition of Plasmodium falciparum 3D7; assay type: cell-based; settings: malaria strain 3D7

IC50 (HL-60-S cells; HL-60-S, HL-60-RV and HL-60-R8, day 4, read-out: IC50 values, inhibition of cell proliferation, range over the three lines)	IC50 (HL-60-S cells; day 2, read-out: IC50, inhibition of HL-60-S cell proliferation)	IC50 (HL-60-S cells; day 4, read-out: IC50, inhibition of HL-60-S cell proliferation)	IC50 (HL-60-R8 cells)	IC50 [3]	Structure (SMILES)	IC50 (HL-60-S cells; Homo sapiens, 48 h, read-out: IC50, inhibition of HL-60-S cell proliferation)	IC50 (HL-60-S cells; Homo sapiens, 96 h, read-out: IC50, inhibition of HL-60-S cell proliferation)	IC50 (HL-60-R8 cells; Homo sapiens)	decrease of the % of mitotic cells (L1210 cells [1])	DNA cleavage (% DNA fragmentation) (L1210 cells [2]; 1.6 μM, 24 h)	DNA fragmentation at 24 h, drug maintained or removed (L1210 cells [2]; 1.6 μM, maintained or removed after 3 or 8 h)	times TT2 inhibits tumor cell growth less effectively than DAU (HL-60-S cells; HL-60-S)	effect on the mitotic index (L1210 cells [1])	DNA fragmentation at 24 h after short exposure (L1210 cells [2]; 10 μM, drug removed after 3 and 8 h)	DNA cleavage (% DNA fragmentation) (L1210 cells [2]; 10 μM, whole 24 h)	concentration at which induction of DNA cleavage peaks (L1210 cells [2]; DNA cleavage at 24 h, internucleosomal fragmentation at 48-72 h)	times higher TT2 than DAU concentrations needed for the same peak of DNA cleavage (L1210 cells [2]; L1210, 24 h)
–	–	–	–	–	COc1cccc2c1C(=O)c1c(O)c3c(c(O)c1C2=O)C[C@@](O)(C(C)=O)C[C@@H]3O[C@H]1C[C@H](N)[C@H](O)[C@H](C)O1 [DAU, daunomycin, reference compound]	14 nM	9 nM	1700 nM	74-91%	45%	33-41%	–	–	–	–	–	–
260 to 300 nM	400 nM	300 nM	2100 nM	8000 nM	COC1=CC(=O)C2=C(C1=O)C1C3=C(C(=O)C=CC3=O)C2c2ccccc21 (stereo not shown) [TT2, 2-Methoxy-9,10-dihydro-9,10-[1′,2′]benzenoanthracene-1,4,5,8-tetraone]	–	–	–	38-48%	–	–	33 times	does not increase	58-67%	61% and 63%	4 to 10 µM	about 6 times
–	–	–	–	5600 nM	COC1=C(Br)C(=O)C2=C(C1=O)C1C3=C(C(=O)C=C(N(C)C)C3=O)C2c2ccccc21 (stereo not shown) [TT16, 2-Bromo-3-methoxy-6-(dimethylamino)-9,10-dihydro-9,10-[1′,2′]benzenoanthracene-1,4,5,8-tetraone]	–	–	–	–	–	–	–	–	–	–	–	–
